Results published in US11512080B2, “CRBN ligands and uses thereof” (Kymera Therapeutics, Inc., priority 2018, dated 2022).
pIC50: −log10 of the molar value. Read-outs that look alike come from different tables or passages of the source.

Biological target: His-tagged CRBN-DDB1 complex (Homo sapiens (Human), UniProt Q96SW2)
Assay: Time-Resolved Fluorescence Resonance Energy Transfer (TR-FRET) assay
Format: binding
Details: read-out: CRBN HTRF IC50
Description: The mixture were incubated at room temperature for 1 hour. […] Quantitative loss of FRET efficiency as a function of compound concentrations was fitted by a four-parameter Logistic Function using GraphPad Prism 7.0 and the IC50 values were reported for each compound.
The compound numbers correspond to the compound numbers in Table 1.

[1] = competition with Cy5-labeled thalidomide (8 nM), 1 hour at room temperature

Sequence of His-tagged CRBN-DDB1 complex (Q96SW2 whole entry): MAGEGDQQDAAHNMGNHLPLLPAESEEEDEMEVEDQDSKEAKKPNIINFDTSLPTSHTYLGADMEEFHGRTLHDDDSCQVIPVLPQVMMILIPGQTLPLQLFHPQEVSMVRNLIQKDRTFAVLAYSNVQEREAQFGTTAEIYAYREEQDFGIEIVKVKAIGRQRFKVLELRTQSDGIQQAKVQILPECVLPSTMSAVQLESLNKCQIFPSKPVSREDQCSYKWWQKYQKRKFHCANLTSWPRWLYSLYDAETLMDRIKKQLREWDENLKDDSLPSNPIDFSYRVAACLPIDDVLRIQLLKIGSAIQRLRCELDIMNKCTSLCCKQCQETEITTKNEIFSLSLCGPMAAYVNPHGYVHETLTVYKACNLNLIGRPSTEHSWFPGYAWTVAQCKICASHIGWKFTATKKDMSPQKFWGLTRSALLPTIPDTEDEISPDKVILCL
Sequence of His-tagged CRBN-DDB1 complex (Q16531 whole entry partner): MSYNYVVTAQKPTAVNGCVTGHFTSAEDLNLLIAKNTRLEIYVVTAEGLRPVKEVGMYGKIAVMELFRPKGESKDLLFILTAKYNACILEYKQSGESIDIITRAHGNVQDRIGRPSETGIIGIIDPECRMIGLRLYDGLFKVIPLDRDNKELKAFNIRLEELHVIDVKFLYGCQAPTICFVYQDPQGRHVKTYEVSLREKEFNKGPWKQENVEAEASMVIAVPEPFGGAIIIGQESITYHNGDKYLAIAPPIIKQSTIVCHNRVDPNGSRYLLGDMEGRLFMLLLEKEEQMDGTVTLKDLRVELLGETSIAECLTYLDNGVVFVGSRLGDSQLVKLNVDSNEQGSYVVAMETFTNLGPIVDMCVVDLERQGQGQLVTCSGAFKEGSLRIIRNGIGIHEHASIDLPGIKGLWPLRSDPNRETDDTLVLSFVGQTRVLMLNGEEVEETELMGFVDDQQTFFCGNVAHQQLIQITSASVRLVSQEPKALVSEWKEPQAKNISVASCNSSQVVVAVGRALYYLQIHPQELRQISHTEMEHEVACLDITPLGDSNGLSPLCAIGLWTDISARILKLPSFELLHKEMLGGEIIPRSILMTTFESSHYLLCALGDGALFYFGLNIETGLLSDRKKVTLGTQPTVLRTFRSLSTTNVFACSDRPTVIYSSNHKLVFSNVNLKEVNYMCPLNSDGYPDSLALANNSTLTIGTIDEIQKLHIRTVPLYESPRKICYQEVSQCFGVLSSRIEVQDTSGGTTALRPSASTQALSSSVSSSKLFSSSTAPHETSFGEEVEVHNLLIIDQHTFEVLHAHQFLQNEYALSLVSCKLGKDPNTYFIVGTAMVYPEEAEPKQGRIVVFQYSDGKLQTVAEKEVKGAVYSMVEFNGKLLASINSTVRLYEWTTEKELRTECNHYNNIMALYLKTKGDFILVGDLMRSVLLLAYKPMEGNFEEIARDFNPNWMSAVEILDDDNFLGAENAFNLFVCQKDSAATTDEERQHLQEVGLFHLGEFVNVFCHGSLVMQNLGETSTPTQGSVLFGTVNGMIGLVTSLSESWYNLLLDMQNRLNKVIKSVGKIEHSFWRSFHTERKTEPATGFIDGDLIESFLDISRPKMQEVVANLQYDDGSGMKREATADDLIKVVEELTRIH

Compound	pIC50	pIC50 [1]
O=C1CCC(Sc2ccccc2)C(=O)N1 (centres unmarked) [Compound I-4, 3-(phenylthio)piperidine-2,6-dione]	4.00 to 5.00	–
O=C1CCC(Sc2ccccn2)C(=O)N1 (centres unmarked) [Compound I-6, 3-(pyridin-2-ylthio)piperidine-2,6-dione]	4.00 to 5.00	–
O=C1CCC(Sc2ccc(F)cc2)C(=O)N1 (centres unmarked) [Compound I-7]	4.00 to 5.00	–
O=C1CCC(Sc2nc3ccc(Cl)cc3[nH]2)C(=O)N1 (centres unmarked) [Compound I-8]	–	5.00 to 6.00
COc1ccc(SC2CCC(=O)NC2=O)cc1 (centres unmarked) [Compound I-9, 3-((4-methoxyphenyl)thio)piperidine-2,6-dione]	4.00 to 5.00	–
O=C1CCC(Sc2ccc(C(=O)O)cc2)C(=O)N1 (centres unmarked) [Compound I-10, 4-((2,6-dioxopiperidin-3-yl)thio)benzoic acid]	4.00 to 5.00	–
CCn1c(SC2CCC(=O)NC2=O)nc2ccccc21 (centres unmarked) [Compound I-11, 3-((1-ethyl-1H-benzo[d]imidazol-2-yl)thio)piperidine-2,6-dione]	5.00 to 6.00	–
Cn1c(SC2CCC(=O)NC2=O)nc2ccccc21 (centres unmarked) [Compound I-12, 3-(1-Methyl-1H-benzoimidazol-2-ylsulfanyl)-piperidine-2,6-dione]	4.00 to 5.00	–
CC(=O)Nc1ccc(SC2CCC(=O)NC2=O)cc1 (centres unmarked) [Compound I-13, N-[4-(2,6-Dioxo-piperidin-3-ylsulfanyl)-phenyl]-acetamide]	4.00 to 5.00	–
Nc1ccc(SC2CCC(=O)NC2=O)cc1 (centres unmarked) [Compound I-14, 3-(4-Amino-phenylsulfanyl)-piperidine-2,6-dione]	4.00 to 5.00	–
O=C1CCC(Sc2ccc(Cl)cc2)C(=O)N1 (centres unmarked) [Compound I-15, 3-((4-chlorophenyl)thio)piperidine-2,6-dione]	4.00 to 5.00	–
O=C1CCC(Sc2ccc(C(F)(F)F)cc2)C(=O)N1 (centres unmarked) [Compound I-16, 3-((4-(trifluoromethyl)phenyl)thio)piperidine-2,6-dione]	4.00 to 5.00	–
CCc1ccc(SC2CCC(=O)NC2=O)cc1 (centres unmarked) [Compound I-17, 3-((4-ethylphenyl)thio)piperidine-2,6-dione]	5.00 to 6.00	–
O=C1CCN(Cc2ccccc2)C(=O)N1 [Compound I-24, 1-Benzyl-dihydro-pyrimidine-2,4-dione]	4.00 to 5.00	–
O=c1ccn(-c2ccccc2)c(=O)[nH]1 [Compound I-27, 1-phenylpyrimidine-2,4(1H,3H)-dione]	4.00 to 5.00	–
O=c1ccn(-c2ccccn2)c(=O)[nH]1 [Compound I-28, 1-(pyridin-2-yl)pyrimidine-2,4(1H,3H)-dione]	–	< 4.00
O=C1NC(=O)C(N2CC(c3ccccc3)OC2=O)S1 (centres unmarked) [Compound I-38]	4.00 to 5.00	–
Cn1c(=O)n(C2SC(=O)NC2=O)c2ccccc21 (centres unmarked) [Compound I-39]	–	< 4.00
O=C1CCC(Sc2ccncc2)C(=O)N1 (centres unmarked) [Compound I-62]	4.00 to 5.00	–
CC(C)(C)n1c(SC2CCC(=O)NC2=O)nc2ccccc21 (centres unmarked) [Compound I-63, 3-((1-(tert-Butyl)-1H-benzo[d]imidazol-2-yl)thio)piperidine-2,6-dione]	4.00 to 5.00	–
CCc1ccc([S+]([O-])C2CCC(=O)NC2=O)cc1 (centres unmarked) [Compound I-64, 3-((4-ethylphenyl)sulfinyl)piperidine-2,6-dione]	4.00 to 5.00	–
CCc1ccc(S(=O)(=O)C2CCC(=O)NC2=O)cc1 (centres unmarked) [Compound I-65, 3-((4-ethylphenyl)sulfonyl)piperidine-2,6-dione]	4.00 to 5.00	–
Cc1ccc(SC2CCC(=O)NC2=O)cc1 (centres unmarked) [Compound I-66]	4.00 to 5.00	–
N#Cc1ccc(SC2CCC(=O)NC2=O)cc1 (centres unmarked) [Compound I-67, 4-((2,6-Dioxopiperidin-3-yl)thio)benzonitrile]	4.00 to 5.00	–
CC(C)c1ccc(SC2CCC(=O)NC2=O)cc1 (centres unmarked) [Compound I-68]	5.00 to 6.00	–
Cc1cccc(SC2CCC(=O)NC2=O)c1 (centres unmarked) [Compound I-69]	4.00 to 5.00	–
O=C1CCC(Sc2nc3ccccc3n2C2CC2)C(=O)N1 (centres unmarked) [Compound I-70, 3-((1-Cyclopropyl-1H-benzo[d]imidazol-2-yl)thio)piperidine-2,6-dione]	4.00 to 5.00	–

Compound	pIC50	pIC50 [1]
Cn1cc(C2SC(=O)NC2=O)c2ccccc21 (centres unmarked) [Compound I-71, 5-(1-Methyl-1H-indol-3-yl)thiazolidine-2,4-dione]	–	< 4.00
O=C1CCC(Sc2cccs2)C(=O)N1 (centres unmarked) [Compound I-72]	4.00 to 5.00	–
Cn1ccnc1SC1CCC(=O)NC1=O (centres unmarked) [Compound I-73]	–	< 4.00
O=C1CCC(Sc2ccccc2O)C(=O)N1 (centres unmarked) [Compound I-74]	5.00 to 6.00	–
COc1ccccc1SC1CCC(=O)NC1=O (centres unmarked) [Compound I-75]	4.00 to 5.00	–
Cn1ccc(N2CCC(=O)NC2=O)n1 [Compound I-76]	–	< 4.00
O=C1CN(C2SC(=O)NC2=O)CCN1 (centres unmarked) [Compound I-77, 5-(3-Oxopiperazin-1-yl)thiazolidine-2,4-dione]	–	< 4.00
CCc1ccc(OC2CCC(=O)NC2=O)cc1 (centres unmarked) [Compound I-78, 3-(4-ethylphenoxy)piperidine-2,6-dione]	5.00 to 6.00	–
Cc1ccc(SC2CCC(=O)NC2=O)c(C)c1 (centres unmarked) [Compound I-79]	5.00 to 6.00	–
Cc1occc1SC1CCC(=O)NC1=O (centres unmarked) [Compound I-80]	4.00 to 5.00	–
Cn1nc(C2SC(=N)NC2=O)c2ccccc21 (centres unmarked) [Compound I-81, 2-Imino-5-(1-methyl-1H-indazol-3-yl)thiazolidin-4-one]	–	< 4.00
O=C1NC(=O)C(N2CCN(c3ccccc3)CC2=O)S1 (centres unmarked) [Compound I-82, 5-(2-Oxo-4-phenylpiperazin-1-yl)thiazolidine-2,4-dione]	–	< 4.00
O=C1CCC(Sc2ncccn2)C(=O)N1 (centres unmarked) [Compound I-83]	4.00 to 5.00	–
CCCCc1ccc(SC2CCC(=O)NC2=O)cc1 (centres unmarked) [Compound I-84]	5.00 to 6.00	–
CN(C)c1ccc(SC2CCC(=O)NC2=O)cc1 (centres unmarked) [Compound I-85]	5.00 to 6.00	–
CCOc1cccc(SC2CCC(=O)NC2=O)c1 (centres unmarked) [Compound I-86]	5.00 to 6.00	–
COc1cccc(SC2CCC(=O)NC2=O)c1 (centres unmarked) [Compound I-87]	5.00 to 6.00	–
Cn1nc(N2CCC(=O)NC2=O)cc1-c1ccccc1 [Compound I-88, 1-(1-Methyl-5-phenyl-1H-pyrazol-3-yl)dihydropyrimidine-2,4(1H,3H)-dione]	4.00 to 5.00	–
Cc1cc(C)nc(SC2CCC(=O)NC2=O)n1 (centres unmarked) [Compound I-89]	4.00 to 5.00	–
O=C1CCC(Sc2ccc(Cl)cn2)C(=O)N1 (centres unmarked) [Compound I-90]	5.00 to 6.00	–
O=C1CCC(Sc2cc(C(F)(F)F)cc(C(F)(F)F)c2)C(=O)N1 (centres unmarked) [Compound I-92]	4.00 to 5.00	–
O=C1CCC(Sc2nc(=O)cc(-c3ccccc3)[nH]2)C(=O)N1 (centres unmarked) [Compound I-93]	4.00 to 5.00	–
O=C1CCC(Sc2nc3ccc(Cl)cc3[nH]2)C(=O)N1 (centres unmarked) [Compound I-94]	5.00 to 6.00	–
Cc1cc(O)nc(SC2CCC(=O)NC2=O)n1 (centres unmarked) [Compound I-95, 3-((4-hydroxy-6-methylpyrimidin-2-yl)thio)piperidine-2,6-dione]	4.00 to 5.00	–
O=C1CCC(Sc2nc3ccccc3[nH]2)C(=O)N1 (centres unmarked) [Compound I-96]	4.00 to 5.00	–
O=C1CCC(Sc2cccc3cccnc23)C(=O)N1 (centres unmarked) [Compound I-97]	5.00 to 6.00	–
O=C1CCC(Sc2ccc(C(F)(F)F)cn2)C(=O)N1 (centres unmarked) [Compound I-98]	4.00 to 5.00	–

Compound	pIC50	pIC50 [1]
O=C1CCC(Sc2ccccc2OC(F)(F)F)C(=O)N1 (centres unmarked) [Compound I-99]	5.00 to 6.00	–
O=C1CCC(Sc2cc(Cl)ccc2Cl)C(=O)N1 (centres unmarked) [Compound I-101]	5.00 to 6.00	–
O=C1CCC(Sc2cc(Cl)c(Cl)cc2Cl)C(=O)N1 (centres unmarked) [Compound I-102]	4.00 to 5.00	–
O=C1CCC(Oc2ccccc2)C(=O)N1 (centres unmarked) [Compound I-103]	4.00 to 5.00	–
O=C1CCC(Sc2ccc(Br)cn2)C(=O)N1 (centres unmarked) [Compound I-104]	5.00 to 6.00	–
Cn1ccc(CN2CCC(=O)NC2=O)n1 [Compound I-106]	4.00 to 5.00	–
O=C1CCC(Sc2cccc(Br)c2)C(=O)N1 (centres unmarked) [Compound I-108, 3-((3-Bromophenyl)thio)piperidine-2,6-dione]	5.00 to 6.00	–
O=C1CCC(Sc2ccccc2C(F)(F)F)C(=O)N1 (centres unmarked) [Compound I-109]	4.00 to 5.00	–
O=C1CCC(Sc2cccc[n+]2[O-])C(=O)N1 (centres unmarked) [Compound I-110]	5.00 to 6.00	–
O=C1CCC(Sc2cc(C(=O)O)ccn2)C(=O)N1 (centres unmarked) [Compound I-111]	5.00 to 6.00	–
O=C1CCC(Sc2ccc(CO)cc2)C(=O)N1 (centres unmarked) [Compound I-112]	4.00 to 5.00	–
Nc1cc(=O)nc(SC2CCC(=O)NC2=O)[nH]1 (centres unmarked) [Compound I-113]	4.00 to 5.00	–
O=C1CCC(Sc2ccc(F)c(F)c2)C(=O)N1 (centres unmarked) [Compound I-114]	4.00 to 5.00	–
CC(C)(C)c1ccc(OC2CCC(=O)NC2=O)cc1 (centres unmarked) [Compound I-115]	5.00 to 6.00	–
O=C1CCC(SC2CCCCC2)C(=O)N1 (centres unmarked) [Compound I-116]	–	< 4.00
N#Cc1ccccc1SC1CCC(=O)NC1=O (centres unmarked) [Compound I-117]	4.00 to 5.00	–
Cn1c(=O)c(C2SC(=O)NC2=O)cc2ccccc21 (centres unmarked) [Compound I-118, 5-(1-methyl-2-oxo-1,2-dihydroquinolin-3-yl)thiazolidine-2,4-dione]	4.00 to 5.00	–
O=C1CCC(Oc2ccc3ccccc3c2)C(=O)N1 (centres unmarked) [Compound I-119]	5.00 to 6.00	–
Nc1cc(C(F)(F)F)ccc1SC1CCC(=O)NC1=O (centres unmarked) [Compound I-120]	4.00 to 5.00	–
CCc1cccc(SC2CCC(=O)NC2=O)c1 (centres unmarked) [Compound I-121, 3-((3-ethylphenyl)thio)piperidine-2,6-dione]	5.00 to 6.00	–
O=C1CCC(Sc2cccc(Cl)c2)C(=O)N1 (centres unmarked) [Compound I-122]	5.00 to 6.00	–
O=C1CCC(Sc2cccc(C(=O)O)c2)C(=O)N1 (centres unmarked) [Compound I-123]	4.00 to 5.00	–
CCCCc1ccc(OC2CCC(=O)NC2=O)cc1 (centres unmarked) [Compound I-124]	5.00 to 6.00	–
CN(C)c1ccc(OC2CCC(=O)NC2=O)cc1 (centres unmarked) [Compound I-125]	5.00 to 6.00	–
O=C1CCC(Sc2ncccc2C(=O)O)C(=O)N1 (centres unmarked) [Compound I-126]	5.00 to 6.00	–
O=C1CCC(Sc2cccc(CO)c2)C(=O)N1 (centres unmarked) [Compound I-127, 3-((3-(Hydroxymethyl)phenyl)thio)piperidine-2,6-dione]	4.00 to 5.00	–
